Biological target: T1, human ADRA2B receptor (Homo sapiens, UniProt P18089)
T1 construct: expressed in transfected cells
T1 sequence (P18089 1-450): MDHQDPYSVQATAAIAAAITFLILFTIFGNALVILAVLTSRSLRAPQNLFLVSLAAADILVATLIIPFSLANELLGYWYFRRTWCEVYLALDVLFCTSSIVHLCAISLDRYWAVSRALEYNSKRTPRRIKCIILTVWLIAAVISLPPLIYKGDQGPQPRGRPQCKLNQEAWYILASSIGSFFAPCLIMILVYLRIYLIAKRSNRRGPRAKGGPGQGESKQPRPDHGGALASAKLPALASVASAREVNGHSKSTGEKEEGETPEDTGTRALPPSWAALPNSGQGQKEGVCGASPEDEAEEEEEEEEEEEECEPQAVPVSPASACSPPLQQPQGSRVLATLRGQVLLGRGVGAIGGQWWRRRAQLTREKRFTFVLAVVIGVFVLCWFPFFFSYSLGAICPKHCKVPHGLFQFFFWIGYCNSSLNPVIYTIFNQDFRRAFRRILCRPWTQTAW
Assay: GTPγS agonist assay, ADRA2B receptor
Assay type: biochemical
Settings: read-out: GTPase - Human Alpha2B EC50
Method: GTP ? S Agonist Assays (ADRA2A, ADRA2B, and ADRA2C Receptors)
Membranes were prepared for GTP ? S binding assays from CHO-K1 cells stably expressing human ADRA2A, ADRA2B, or ADRA2C receptor. Briefly, cells were grown in 5-layer cell culture flasks. Cells were washed with 50 mL of PBS and then dissociated with 0.05% trypsin. Dissociated cells were then collected by centrifugation at 650×g for 8 min at 4° C. Pellets were washed again in PBS by centrifugation and resuspended in 30 mL of 20 mM HEPES, 10 mM EDTA, pH 7.4. After sitting on ice for 30 min, membranes were collected by centrifugation at 50000×g for 15 min at 4° C., resuspended in 30 mL of 20 mM HEPES, 0.1 mM EDTA, pH 7.4 and collected again by centrifugation. Pellets were then washed twice by centrifugation in 30 mL of 20 mM HEPES, pH 7.4, and stored at −80° C. until the day of the assay. On the day of the assay, pellets were thawed on ice and resuspended in 1 mL of 20 mM HEPES, pH 7.4, 10 mM MgCl2, 100 mM NaCl using dounce homogenization. Membrane protein concentration was determined by BCA protein assay (Promega, Madison, WI) according to Promega guidelines.
On the day of the assay, serial dilutions of test compounds were brought up in assay buffer (20 mM HEPES, 10 mM MgCl2, 200 mM NaCl) at 10× final assay concentration. 50 μL/well of membrane homogenates (containing 5 μg of membrane protein for ADRA2A, ADRA2B, or 7.5 μg for ADRA2C) were prepared in assay buffer supplemented with GDP at 2× final assay concentration (5 μM GDP) and dispensed into 96 well polypropylene, U-bottom Greiner plates. Then, 10 μL of compounds were added to assay plates and incubated for 10 min at room temperature. […] The binding reaction was incubated for 1 h at 37° C. Membranes in assay reactions were then transferred to GF/C filter plates (UniFilter, Perkin Elmer) and washed three times using a FilterMate Harvester (Perkin Elmer) with cold assay buffer containing no GDP. Filter plates were then dried at 40° C. overnight followed by the addition of 30 μL/well of Beta Plate Scintillation liquid. Plates were top and bottom sealed before being read on TopCount scintillation counter (Perkin Elmer, Waltham, MA).

c1cncc(CC(c2cnc[nH]2)c2cccc3c2CCO3)c1 (stereo not drawn) [Compound 57, 3-[2-(2,3-dihydro-1-benzofuran-4-yl)-2-(1H-imidazol-4-yl)ethyl] pyridine]
EC50: > 500 nM

Cc1cccc([C@H](Cc2cccnc2)c2cnc[nH]2)c1C [Compound 58, 3-[(2S)-2-(2,3-dimethylphenyl)-2-(1H-imidazol-4-yl)ethyl] pyridine]
EC50: 50 to 500 nM

Cc1cccc([C@@H](Cc2cccnc2)c2cnc[nH]2)c1C [Compound 59, 3-[(2R)-2-(2,3-dimethylphenyl)-2-(1H-imidazol-4-yl)ethyl] pyridine]
EC50: < 10 nM

Cc1cccc([C@H](Cc2cccnc2)c2cnc[nH]2)c1Cl [Compound 60, 3-[(2S)-2-(2-chloro-3-methylphenyl)-2-(1H-imidazol-4-yl)ethyl] pyridine]
EC50: < 10 nM

Cc1cccc([C@@H](Cc2cccnc2)c2cnc[nH]2)c1Cl [Compound 61, 3-[(2R)-2-(2-chloro-3-methylphenyl)-2-(1H-imidazol-4-yl)ethyl]pyridine]
EC50: 50 to 500 nM

Cc1c(Cl)cccc1[C@H](Cc1cccnc1)c1cnc[nH]1 [Compound 62, 3-[(2S)-2-(3-chloro-2-methylphenyl)-2-(1H-imidazol-4-yl)ethyl]pyridine]
EC50: > 500 nM

Cc1c(Cl)cccc1[C@@H](Cc1cccnc1)c1cnc[nH]1 [Compound 63, 3-[(2R)-2-(3-chloro-2-methylphenyl)-2-(1H-imidazol-4-yl)ethyl]pyridine]
EC50: < 10 nM

Cc1cc(C[C@H](c2cnc[nH]2)c2cccc(C)c2C)n(C)n1 [Compound 68, 5-[(2S)-2-(2,3-dimethylphenyl)-2-(1H-imidazol-4-yl)ethyl]-1,3-dimethyl-1H-pyrazole]
EC50: > 500 nM

Cc1cc(C[C@@H](c2cnc[nH]2)c2cccc(C)c2C)n(C)n1 [Compound 69, 5-[(2R)-2-(2,3-dimethylphenyl)-2-(1H-imidazol-4-yl)ethyl]-1,3-dimethyl-1H-pyrazole]
EC50: < 10 nM

Cc1nccc(C[C@H](c2cnc[nH]2)c2cccc(C)c2C)n1 [Compound 70, 4-[(2S)-2-(2,3-dimethylphenyl)-2-(1H-imidazol-4-yl)ethyl]-2-methyl-pyrimidine]
EC50: < 10 nM

Cc1nccc(C[C@@H](c2cnc[nH]2)c2cccc(C)c2C)n1 [Compound 71, 4-[(2R)-2-(2,3-dimethylphenyl)-2-(1H-imidazol-4-yl)ethyl]-2-methyl-pyrimidine]
EC50: > 500 nM

Cc1cccc([C@H](Cc2ccnc(C(F)(F)F)n2)c2cnc[nH]2)c1C [Compound 72, 4-[(2S)-2-(2,3-dimethylphenyl)-2-(1H-imidazol-4-yl)ethyl]-2-(trifluoromethyl) pyrimidine]
EC50: < 10 nM

Cc1cccc([C@@H](Cc2ccnc(C(F)(F)F)n2)c2cnc[nH]2)c1C [Compound 73, 4-[(2R)-2-(2,3-dimethylphenyl)-2-(1H-imidazol-4-yl)ethyl]-2-(trifluoromethyl) pyrimidine]
EC50: > 500 nM

Cc1cnc(C[C@H](c2cnc[nH]2)c2cccc(C)c2C)nc1 [Compound 74, 2-[(2S)-2-(2,3-dimethylphenyl)-2-(1H-imidazol-4-yl)ethyl]-5-methyl-pyrimidine]
EC50: > 500 nM

Cc1cnc(C[C@@H](c2cnc[nH]2)c2cccc(C)c2C)nc1 [Compound 75, 2-[(2R)-2-(2,3-dimethylphenyl)-2-(1H-imidazol-4-yl)ethyl]-5-methylpyrimidine]
EC50: 50 to 500 nM

Cc1cccc([C@H](Cc2ccc(=O)[nH]n2)c2cnc[nH]2)c1C [Compound 76, 6-[(2S)-2-(2,3-dimethylphenyl)-2-(1H-imidazol-4-yl)ethyl]-2,3-dihydropyridazin-3-one]
EC50: > 500 nM

Cc1cccc([C@@H](Cc2ccc(=O)[nH]n2)c2cnc[nH]2)c1C [Compound 77, 6-[(2R)-2-(2,3-dimethylphenyl)-2-(1H-imidazol-4-yl)ethyl]-2,3-dihydropyridazin-3-one]
EC50: < 10 nM

Cc1ccnc(C[C@H](c2cnc[nH]2)c2cccc(C)c2C)n1 [Compound 78, 2-[(2S)-2-(2,3-dimethylphenyl)-2-(1H-imidazol-4-yl)ethyl]-4-methylpyrimidine]
EC50: > 500 nM

Cc1ccnc(C[C@@H](c2cnc[nH]2)c2cccc(C)c2C)n1 [Compound 79, 2-[(2R)-2-(2,3-dimethylphenyl)-2-(1H-imidazol-4-yl)ethyl]-4-methylpyrimidine]
EC50: 50 to 500 nM

Cc1cccc([C@H](Cc2cccc(C(F)(F)F)n2)c2c[nH]cn2)c1C [Compound 80, 2-[(2S)-2-(2,3-dimethylphenyl)-2-(1H-imidazol-4-yl)ethyl]-6-(trifluoromethyl) pyridine]
EC50: < 10 nM

Cc1cccc([C@@H](Cc2cccc(C(F)(F)F)n2)c2c[nH]cn2)c1C [Compound 81, 2-[(2R)-2-(2,3-dimethylphenyl)-2-(1H-imidazol-4-yl)ethyl]-6-(trifluoromethyl) pyridine]
EC50: > 500 nM

Cc1cncc(C[C@H](c2cnc[nH]2)c2cccc(C)c2C)n1 [Compound 82, 2-[(2S)-2-(2,3-dimethylphenyl)-2-(1H-imidazol-4-yl)ethyl]-6-methylpyrazine]
EC50: 50 to 500 nM

Cc1cncc(C[C@@H](c2cnc[nH]2)c2cccc(C)c2C)n1 [Compound 83, 2-[(2R)-2-(2,3-dimethylphenyl)-2-(1H-imidazol-4-yl)ethyl]-6-methylpyrazine]
EC50: < 10 nM

COCCNc1cccc(CC(c2cnc[nH]2)c2cccc(C)c2C)n1 (stereo not drawn) [Compound 84, 6-[2-(2,3-dimethylphenyl)-2-(1H-imidazol-4-yl)ethyl]-N-(2-methoxyethyl) pyridin-2-amine]
EC50: < 10 nM

Cc1cccc(C(Cc2ccnnc2)c2cnc[nH]2)c1C (stereo not drawn) [Compound 85, 4-[2-(2,3-dimethylphenyl)-2-(1H-imidazol-4-yl)ethyl] pyridazine]
EC50: 10 to 50 nM

Cc1cccc(C(Cc2ccc(=O)[nH]n2)c2c[nH]cn2)c1C (stereo not drawn) [Compound 86, 6-[2-(2,3-dimethylphenyl)-2-(1H-imidazol-4-yl)ethyl]-2,3-dihydropyridazin-3-one]
EC50: < 10 nM

Cc1cccc(C(Cc2cccc(=O)[nH]2)c2cnc[nH]2)c1C (stereo not drawn) [Compound 87, 6-[2-(2,3-dimethylphenyl)-2-(1H-imidazol-4-yl)ethyl] pyridin-2-ol]
EC50: > 500 nM

Cc1cncc(CC(c2cnc[nH]2)c2cccc(C)c2C)n1 (stereo not drawn) [Compound 88, 2-[2-(2,3-dimethylphenyl)-2-(1H-imidazol-4-yl)ethyl]-6-methylpyrazine]
EC50: 10 to 50 nM

COc1cncc(CC(c2cnc[nH]2)c2cccc(C)c2C)n1 (stereo not drawn) [Compound 89, 2-[2-(2,3-dimethylphenyl)-2-(1H-imidazol-4-yl)ethyl]-6-methoxy-pyrazine]
EC50: < 10 nM

Cc1cccc(C(Cc2ccc(Cl)cn2)c2cnc[nH]2)c1C (stereo not drawn) [Compound 90, 5-chloro-2-[2-(2,3-dimethylphenyl)-2-(1H-imidazol-4-yl)ethyl] pyridine]
EC50: < 10 nM

COc1cc(OC)nc(CC(c2c[nH]cn2)c2cccc(C)c2C)n1 (stereo not drawn) [Compound 91, 2-[2-(2,3-dimethylphenyl)-2-(1H-imidazol-4-yl)ethyl]-4,6-dimethoxy-pyrimidine]
EC50: < 10 nM

Cc1cccc(C(Cc2ccncn2)c2cnc[nH]2)c1C (stereo not drawn) [Compound 92, 4-[2-(2,3-dimethylphenyl)-2-(1H-imidazol-4-yl)ethyl] pyrimidine]
EC50: 10 to 50 nM

Cc1cccc(C(Cc2ncccn2)c2cnc[nH]2)c1C (stereo not drawn) [Compound 93, 2-[2-(2,3-dimethylphenyl)-2-(1H-imidazol-4-yl)ethyl] pyrimidine]
EC50: 50 to 500 nM
